Reference: US10570179B2, “Substituted urea depsipeptide analogs as activators of the CLPP endopeptidase” (priority 2016, dated 2020)
≈ marks a conversion by molar mass, not a printed value. Numbered stars: 1 amine (or outer) side, 2 acyl side, 3 side chain; on linkers, the order of the positions; unused ones are H or OH. Bridge positions count the residues as written; N and C are the ends. Square brackets hold non-standard residues; d marks the D form. Peptide text beside a SMILES is read from it. * marks the point of attachment. Piperazine(2S-CO,4-Me) = CN1CCN[C@H](C(=O)O)C1; Phe(3-Cl) = N[C@@H](Cc1cccc(Cl)c1)C(=O)O; NH(4-Cl-2-F-phenyl) = Fc1cc(Cl)ccc1N*; Pro(4R-Me) = C[C@H]1CN[C@H](C(=O)O)C1; aThr = C[C@H](O)[C@H](N)C(=O)O; CO = O=C([*:1])[*:2]

Key:
[1] = test system: S. aureus ΔClpP; test: Minimal inhibitory concentration, microbroth dilution; format: cell-based, Staphylococcus aureus; conditions: MIC; ClpP inactivated
Method in brief: (§1)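 Compound was diluted twofold in the appropriate broth. Bacterial suspension (approx. 10^5 cfu/mL) was then added in equal volume, giving a maximum test concentration of 200 μM. After aerobic overnight incubation at 37 °C, wells were inspected visually for growth.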

[2] = biological target: T1, Sa-ClpP (Staphylococcus aureus, UniProt Q2G036); test: ADEP displacement fluorescence polarization assay; format: binding, S. aureus; conditions: displacement of FP probe ADEP 2591 from Sa-ClpP
T1 construct: made in house; host or cells: E. coli BL21 (DE3)
T1 sequence (Q2G036 whole entry): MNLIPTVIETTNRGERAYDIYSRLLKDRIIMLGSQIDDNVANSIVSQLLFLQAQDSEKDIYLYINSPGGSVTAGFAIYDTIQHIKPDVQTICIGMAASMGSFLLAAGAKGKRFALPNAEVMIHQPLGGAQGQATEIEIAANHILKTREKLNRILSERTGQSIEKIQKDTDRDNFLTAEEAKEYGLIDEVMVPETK
Method in brief: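 Master mix of 15 μM Sa-ClpP and 50 nM TAMRA-labelled ADEP 2591 probe in Tris-HCl pH 8.0, 2% DMSO, was pre-equilibrated 1 h at RT, then compounds were added and incubated 120 min at RT. Polarization (ex 530, em 579 nm, mP) was normalised to 200 μM ADEP 2378 and DMSO controls and fitted by four-parameter regression, in triplicate.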

[3] = Plasma stability assay; format: in vitro ADME, mouse; conditions: mouse, 10 μM
Method in brief: (§2)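 Compounds at 10 μM final in human or mouse plasma, incubated at 37 °C and sampled at 0, 3, 24 and 48 h in triplicate. Reactions quenched with cold acetonitrile containing warfarin internal standard; parent measured by LC-MS. Half-life from least-squares first-order fit.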

[4] = Plasma stability assay; format: in vitro ADME, human; conditions: human, 10 μM
Method in brief: as §2

[5] = test system: S. aureus ATCC 29213; test: Minimal inhibitory concentration, microbroth dilution; format: cell-based; conditions: Staphylococcus aureus, ATCC29213; MIC; read-out: Minimal Inhibitory Concentrations (μM) S. aureus ATCC 29213
Method in brief: as §1

[6] = test system: E. faecails; test: as above; format: cell-based; conditions: Enterococcus faecalis; MIC; read-out: Minimal Inhibitory Concentrations (μM) E. faecails
Method in brief: as §1

[7] = test system: MRSA NRS70; test: as above; format: cell-based; conditions: Staphylococcus aureus; MIC; read-out: Minimal Inhibitory Concentrations (μM) MRSA NRS70
Method in brief: as §1

[8] = test system: S. aureus USA 300; test: as above; format: cell-based; conditions: Staphylococcus aureus, USA300; MIC; read-out: Minimal Inhibitory Concentrations (μM) S. aureus USA 300
Method in brief: as §1

For `C[C@@H]1C[C@H]2C(=O)O[C@@H](C)[C@H](NC(=O)[C@H](Cc3cccc(Cl)c3)NC(=O)Nc3ccc(Cl)cc3F)C(=O)N3CCC[C@H]3C(=O)N3CCN(C)C[C@H]3C(=O)N[C@@H](C)C(=O)N2C1` [Compound 33] ({NH(4-Cl-2-F-phenyl)-CO}-[Phe(3-Cl)][aThr]P[Piperazine(2S-CO,4-Me)]A[Pro(4R-Me)]; ester 2-C), the “Minimal Inhibitory Concentrations (μM) S. aureus ΔClpP” value [1] was >20 µM, the IC50 [2] was 3.16 ± 0.16 µM and the “Mouse” value [3] was >50 h. For the same molecule, the “Human” value [4] was >50 h, the MIC [5] was 0.078 µM (≈ 0.0671 µg/mL) and the MIC [6] was 0.078 µM (≈ 0.0671 µg/mL). It also gave an MIC [7] of 0.039 µM (≈ 0.0335 µg/mL) and an MIC [8] of 0.078 µM (≈ 0.0671 µg/mL).
